Laboratory results reported in patent US20120016010A1, “RNA Interference Mediated Inhibition of BTB and CNC Homology 1, Basic Leucine Zipper Transcription Factor 1 (BACH1) Gene Expression Using Short Interfering Nucleic Acid (siNA)” (Merck Sharp & Dohme Corp, priority 2009, published 2012).
[invAb] = inverted abasic unit; d = 2'-deoxy (DNA); m = 2'-O-methyl; r = 2'-OH (RNA); f = 2'-fluoro

How the values were obtained:
Bach1 mRNA [1] = test: Initial screen: Bach1 mRNA knock-down in mouse NIH 3T3 cells (96-well transfection, quantitative RT-PCR); format: cell-based; conditions: mouse NIH3T3 cells, n = 2, 24 hrs post-transfection, protocol 10 nM siNA
Description: (§1) All cells were obtained from ATCC (Manassas, Va.) unless otherwise indicated. Cells were grown and transfected under standard conditions, which are detailed below for each cell line.
(§2) Cells were plated in all wells of a tissue-culture treated, 96-well plate at a final count of 5000 cells/well in 100 μL of the appropriate culture media. The cells were cultured for 24 hours after plating at 37° C. in the presence of 5% CO2.
(§3) After 24 hours, complexes containing siNA and RNAiMax were created as follows: A solution of RNAiMax diluted 33-fold in OPTI-MEM was prepared. […] After incubation of RNAiMax/OPTI-MEM solution at room temperature for 5 min, an equal volume of the siNA solution and the RNAiMax solution were added together for each of the siNAs.
(§4) This solution was incubated at room temperature for 20 minutes. After incubation, 20 uL of the solution was added to each of the relevant wells. The final concentration of siNA in each well was 10 nM and the final volume of RNAiMax in each well was 0.3 ul. […]
(§5) Briefly, a 60 uL (1 plate) or 110 uL (2 plates) of the Lysis Solution with DNase I was dispensed into each well of the Lysis Buffer Plate (twin.tec full skirt plate). The lysis buffer and stop plates were stored at 4° C. until the cells were washed.
(§6) The plate was spun at 1100 rpm for 5 minutes. The culture medium was aspirated and discarded from the wells of the culture plate. The lysis was performed automatically using a BioMek FX instrument and method. After the Biomek method was completed, the lysis plate was incubated for 2 min at room temperature. The lysis plate can be stored for 2 hours at 4° C., or at −20° C. or −80° C. for two months.
(§7) Each well of the reverse transcription plate required 10 uL of 2× reverse transcriptase Buffer, 1 uL of 20× reverse transcription enzyme and 2 uL of nuclease-free water. The reverse transcription master mix was prepared by mixing 2× reverse transcription buffer, 20× reverse transcription enzyme mix, and nuclease-free water. 13 uL of the reverse transcription master mix was dispensed into each well of the reverse transcription plate (semi-skirted). A separate reverse transcription plate was prepared for each cell plate. The plate was loaded onto a Biomek NX or Biomek FX Dual −96 and the Biomek method was run. The program is programmed to automatically added 7 uL of lysate from the cell lysis procedure described above into each well of the reverse transcription plate. The plate is sealed and spun on a centrifuge (1000 rpm for 30 seconds) to settle the contents to the bottom of the reverse transcription plate. The plate is placed in a thermocycler at 37° C. for 60 min, 95° C. for 5 min, and 4° C. until the plate is removed from the thermocycler. Upon removal, if not used immediately, the plate was frozen at −20° C.
(§8) A series of probes and primers were used to detect the various mRNA transcripts of the genes of Bach1, HMOX-1, and GAPDH in mouse and human cell lines. The assays were performed on an ABI 7900 instrument, according to the manufacturer's instructions. […] The PCR reactions were carried out at 50° C. for 2 min, 95° C. for 20 min followed by 40 cycles at 95° C. for 15 secs and 60° C. for 1 min
(§9) Within each experiment, the […] was set in the exponential phase of the amplification curve, and based on the intersection point of the baselines with the amplification curve, a Ct value was assigned by the instrument.
(§10) The expression level of the gene of interest and % knock-down was calculated using Comparative Ct method:
(§11) ΔCt=ΔCt(Target siRNA)−ΔCt(NTC)
(§12) Relative expression level=2^−ΔΔCt
(§13) The non-targeting control siNA was, unless otherwise indicated, chosen as the value against which to calculate the % knock-down, because it is the most relevant control.

Bach1 mRNA [2] = test: Initial screen: Bach1 mRNA knock-down in human A549 cells (96-well transfection, quantitative RT-PCR); format: cell-based; conditions: Bach1 mRNA, 10 nM siNA, human A549 cells, n = 2, mean ± S.D., normalized to GAPDH and non-targeting control, 24 hrs post-transfection
Description: as §1, §2, §3, §4, §5, §6, §7, §8, §9, §10, §11, §12, §13

| Substance | % KD (Bach1 mRNA [1]) [%] | % KD (Bach1 mRNA [2]) [%] |
| --- | --- | --- |
| 29970-DC: Bach1 siNA duplex, target site 1472 (mouse); sense B GAGuGucccuGGuuGGGuA TTB (SEQ 89); antisense UACccAAccAGGGAcAcucUU (SEQ 90) (sense GAGUGUCCCUGGUUGGGUATT; antisense UACCCAACCAGGGACACUCUU; sense: DNA at AGT, 2'-fluoro at CU, [invAb] at 5' end, 3' end, backbone not given here; antisense: sugars from the 5' end rrrffmmffmmmmmfmfffmm, backbone not given here) | 69.4 ± 4.8 | 46.8 ± 5.1 |
| 29959-DC: Bach1 siNA duplex, target site 1415; sense B GAGuGuccGuGGuuAGGuA TTB (SEQ 67); antisense UACcuAAccAcGGAcAcuCUU (SEQ 68) (sense GAGUGUCCGUGGUUAGGUATT; antisense UACCUAACCACGGACACUCUU; sense: DNA at AGT, 2'-fluoro at CU, [invAb] at 5' end, 3' end, backbone not given here; antisense: chemistry not given here; in key) | −9.9 ± 3.8 | 68 ± 14.9 |
| 29951-DC: Bach1 siNA duplex, target site 1162; sense B GccuuuGucAGGuAcAGAc TTB (SEQ 51); antisense GUCuGuAccuGAcAAAGGcUU (SEQ 52) (sense GCCUUUGUCAGGUACAGACTT; antisense GUCUGUACCUGACAAAGGCUU; sense: DNA at AGT, 2'-fluoro at CU, [invAb] at 5' end, 3' end, backbone not given here; antisense: sugars from the 5' end rrrfmfmfffmmfmmmmmfmm, backbone not given here) | −22 ± 13.2 | 39 ± 11.2 |
| 29953-DC: Bach1 siNA duplex, target site 1096; sense B cAcAuAuGAccAAuAuGGu TTB (SEQ 55); antisense ACCAuAuuGGucAuAuGuGUU (SEQ 56) (sense CACAUAUGACCAAUAUGGUTT; antisense ACCAUAUUGGUCAUAUGUGUU; sense: DNA at AGT, 2'-fluoro at CU, [invAb] at 5' end, 3' end, backbone not given here; antisense: sugars from the 5' end rrrmfmffmmffmfmfmfmmm, backbone not given here) | −11 ± 3.3 | 24 ± 14.1 |
| 29967-DC: Bach1 siNA duplex, target site 494 (mouse); sense B GAGuuucuAAGcGuAcAcA TTB (SEQ 83); antisense UGUGuAcGcuuAGAAAcucUU (SEQ 84) (sense GAGUUUCUAAGCGUACACATT; antisense UGUGUACGCUUAGAAACUCUU; sense: DNA at AGT, 2'-fluoro at CU, [invAb] at 5' end, 3' end, backbone not given here; antisense: sugars from the 5' end rrrmfmfmfffmmmmmfffmm, backbone not given here) | 34.7 ± 8.4 | 34.6 ± 6.7 |
| 29977-DC: Bach1 siNA duplex, target site 1640 (mouse); sense B GAGccuuGcccGuAuGcuu TTB (SEQ 103); antisense AAGcAuAcGGGcAAGGcucUU (SEQ 104) (sense GAGCCUUGCCCGUAUGCUUTT; antisense AAGCAUACGGGCAAGGCUCUU; sense: DNA at AGT, 2'-fluoro at CU, [invAb] at 5' end, 3' end, backbone not given here; antisense: sugars from the 5' end rrrfmfmfmmmfmmmmfffmm, backbone not given here) | 53 ± 2.9 | 18.9 ± 0.3 |
| 29954-DC: Bach1 siNA duplex, target site 1389; sense B cAGAAcAGAucucAcAGAA TTB (SEQ 57); antisense UCCuGuGAGAucuGuucuGUU (SEQ 58) (sense CAGAACAGAUCUCACAGAATT; antisense UCCUGUGAGAUCUGUUCUGUU; sense: DNA at AGT, 2'-fluoro at CU, [invAb] at 5' end, 3' end, backbone not given here; antisense: sugars from the 5' end rrrfmfmmmmfffmffffmmm, backbone not given here) | −10.2 ± 10.1 | 63.4 ± 0.9 |
| 29987-DC: Bach1 siNA duplex, target site 1313; sense B GGcuucuGGAGuGAcAuuu TTB (SEQ 123); antisense AAAuGucAcuccAGAAGccUU (SEQ 124) (sense GGCUUCUGGAGUGACAUUUTT; antisense AAAUGUCACUCCAGAAGCCUU; sense: DNA at AGT, 2'-fluoro at CU, [invAb] at 5' end, 3' end, backbone not given here; antisense: sugars from the 5' end rrrfmffmffffmmmmmffmm, backbone not given here) | −16.1 ± 11.6 | 16 ± 0.2 |
| 29980-DC: Bach1 siNA duplex, target site 1939 (mouse); sense B cGAGAAGcuGcAAAGuGAA TTB (SEQ 109); antisense UUCAcuuuGcAGcuucucGUU (SEQ 110) (sense CGAGAAGCUGCAAAGUGAATT; antisense UUCACUUUGCAGCUUCUCGUU; sense: DNA at AGT, 2'-fluoro at CU, [invAb] at 5' end, 3' end, backbone not given here; antisense: sugars from the 5' end rrrmffffmfmmffffffmmm, backbone not given here) | 49.2 ± 1.1 | 91.3 ± 0.9 |
| 29955-DC: Bach1 siNA duplex, target site 737; sense B GAGuccAuGuGcuuAGAGA TTB (SEQ 59); antisense UCUcuAAGcAcAuGGAcucUU (SEQ 60) (sense GAGUCCAUGUGCUUAGAGATT; antisense UCUCUAAGCACAUGGACUCUU; sense: sugars from the 5' end rrrfffdfdfdfffddddddd, [invAb] at 5' end, 3' end, backbone not given here; antisense: sugars from the 5' end rrrffmmmfmfmfmmmfffmm, backbone not given here) | −12.2 ± 4.3 | 14.6 ± 0.2 |
| 29960-DC: Bach1 siNA duplex, target site 1377; sense B ccAAAGAuGGcucAGAAcA TTB (SEQ 69); antisense UGUucuGAGccAucuuuGGUU (SEQ 70) (sense CCAAAGAUGGCUCAGAACATT; antisense UGUUCUGAGCCAUCUUUGGUU; sense: DNA at AGT, 2'-fluoro at CU, [invAb] at 5' end, 3' end, backbone not given here; antisense: sugars from the 5' end rrrfffmmmffmfffffmmmm, backbone not given here) | 5.9 ± 6.4 | 34 ± 3 |
| 29962-DC: Bach1 siNA duplex, target site 1240; sense B cAGGGAAGAuAGuAGuGuu TTB (SEQ 73); antisense AACAcuAcuAucuucccuGUU (SEQ 74) (sense CAGGGAAGAUAGUAGUGUUTT; antisense AACACUACUAUCUUCCCUGUU; sense: DNA at AGT, 2'-fluoro at CU, [invAb] at 5' end, 3' end, backbone not given here; antisense: sugars from the 5' end rrrmffmffmffffffffmmm, backbone not given here) | 21.3 ± 2.2 | 88 ± 0.7 |
